In patent publication US7388006B2, “Non-steroidal progesting” (Bayer Schering Pharma AG, priority 2002, dated 2008):

Assays:
rat mammary epithelium = assay: MIB-5 immunohistochemistry, proliferation of the mammary epithelium; assay type: in vivo; conditions: FIG. 2
Description: In order to determine the effects of test progestins according to the present invention, in particular compound ((+)-1), in mammary gland differentiation and proliferation, premature female rats (Wistar Han, SPF) are ovariectomized at the age of 21 days, 4 to 6 days before treatment start. The animals are treated for 6 days with standard estrogen (estrone (E1), 70 μg/kg) and the test progestin ((+)-1) (application volume: 0.1 ml/50 g body weight; vehicle: benzylbenzoate/castor oil (1+4 v/v); subcutaneous). Control groups are e.g.: vehicle, estrone without progestin, estradiol together with a known progestin, e.g. R5020 (promegestone). After the 6-day treatment the animals are killed with carbon dioxide.
For the whole mount staining, animals are shaved in the left abdominal inguinal mammary region, which is cut from the body together with the skin. For the histological/immunohistochemical analyses the right abdominal inguinal mammary gland is cut from the body together with the connective-tissue adhered thereto and fixed in 3.7% formalin in PBS (phosphate buffer saline; without Ca^2+/Mg^2+).
For a more detailed evaluation of the proliferation of the mammary epithelium, cells are stained with the proliferation marker MIB-5 as follows (cf. FIG. 2): Mammary glands are fixed in 4% formaldehyde/PBS for 24 h and embedded in paraffm. 4 μm sections are spread on slides, deparaffinized, treated with microwaves for 10 min. in citrate buffer pH 6.0 and rinsed with PBS. Slides are then blocked with 3% H2O2/methanol for 15 min., Blockingkit (Vektor, no. SP-2001) for 10 min. and rat serum (Sigma, no. S-7648) diluted 1:2 in PBS for 30 min to reduce nonspecific staining and rinsed in PBS. Slides are incubated for 1 hour with monoclonal antibody MIB-5 (Dianova, no. Dia-5055), which is specific for the rat Ki-67 antigen (1:200 diluted in PBS/0.2% BSA). […]
In order to characterize a test compound, the percentage of MIB-5 stained mammary epithelium cells is determined. […]

[1] = target: T1, mineralocorticoid receptor (MR) (Homo sapiens, UniProt P08235); assay: Binding to the mineralocorticoid receptor in vitro
T1 sequence (P08235 1-984): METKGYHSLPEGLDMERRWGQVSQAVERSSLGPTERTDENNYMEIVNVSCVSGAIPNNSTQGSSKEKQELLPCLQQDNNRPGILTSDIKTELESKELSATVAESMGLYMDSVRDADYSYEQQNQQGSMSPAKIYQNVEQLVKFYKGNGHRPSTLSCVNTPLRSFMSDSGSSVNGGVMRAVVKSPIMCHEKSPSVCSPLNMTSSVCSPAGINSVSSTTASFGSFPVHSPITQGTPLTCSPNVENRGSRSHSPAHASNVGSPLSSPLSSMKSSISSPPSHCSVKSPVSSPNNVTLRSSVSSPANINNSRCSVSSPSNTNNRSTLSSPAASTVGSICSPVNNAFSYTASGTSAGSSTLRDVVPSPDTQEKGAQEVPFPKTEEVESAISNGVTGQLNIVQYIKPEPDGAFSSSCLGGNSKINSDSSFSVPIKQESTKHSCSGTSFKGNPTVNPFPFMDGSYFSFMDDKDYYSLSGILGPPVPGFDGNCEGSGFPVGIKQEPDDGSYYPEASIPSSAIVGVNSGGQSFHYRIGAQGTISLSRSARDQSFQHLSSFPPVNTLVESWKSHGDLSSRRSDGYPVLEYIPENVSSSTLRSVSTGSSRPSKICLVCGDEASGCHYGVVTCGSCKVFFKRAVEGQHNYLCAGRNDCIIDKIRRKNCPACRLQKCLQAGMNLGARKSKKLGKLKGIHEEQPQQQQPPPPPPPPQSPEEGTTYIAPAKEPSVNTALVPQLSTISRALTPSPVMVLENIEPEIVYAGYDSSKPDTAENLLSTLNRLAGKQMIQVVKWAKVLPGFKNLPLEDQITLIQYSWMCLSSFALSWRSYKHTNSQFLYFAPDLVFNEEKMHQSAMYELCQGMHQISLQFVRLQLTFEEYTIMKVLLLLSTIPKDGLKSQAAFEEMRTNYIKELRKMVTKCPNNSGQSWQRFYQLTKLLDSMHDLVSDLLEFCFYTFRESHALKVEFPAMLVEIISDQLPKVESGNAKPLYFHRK

## O=C1OCc2cc(NC(=O)C(O)(CC3(c4cc(C(F)(F)F)ccc4F)CC3)C(F)(F)F)ccc21 (single isomer, unassigned; (+)) [((+)-1), (+)-5-{2-hydroxy-3-[1-(2-fluoro-5-trifluoromethylphenyl)-cyclopropyl]-2-trifluoromethyl-propionylamino}-phthalide]
Rat mammary epithelium; 1 mg/kg/d
  MIB-5 positive cells: ~12%
Rat mammary epithelium; increasing concentrations
  MIB-5 positive cells, dose dependence in words: dose-dependent decrease of MIB-5 positive cells
[1]
  Affinity for the mineralocorticoid receptor (MR): negligible affinity
